Test results: PubChem BioAssay (NCI)
Where “and” joins values, the source holds several entries; their conditions need not be identical. Equal values may be shown once.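 Values below derive from 48-hour exposures of cells grown in 96-well plates, with endpoints linearly interpolated between the two concentrations bracketing the appropriate inhibition level. The concentration for 50% growth inhibition is given as GI50. At the TGI there is no net growth.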

What was measured:
Test in all cases: DTP human tumour cell line panel, 48 h
RXF 393 renal = tested on: RXF 393 renal
HS 578T breast = tested on: HS 578T breast
CCRF-CEM leukemia = tested on: CCRF-CEM leukemia
MDA-N = tested on: MDA-N
RPMI-8226 leukemia = tested on: RPMI-8226 leukemia
HCT-15 colon = tested on: HCT-15 colon
SK-OV-3 ovarian = tested on: SK-OV-3 ovarian
NCI-H226 lung = tested on: NCI-H226 lung
SR leukemia = tested on: SR leukemia
SF-295 CNS = tested on: SF-295 CNS
SK-MEL-5 melanoma = tested on: SK-MEL-5 melanoma
KM12 colon = tested on: KM12 colon
EKVX NSCLC = tested on: EKVX NSCLC
OVCAR-8 ovarian = tested on: OVCAR-8 ovarian
M14 melanoma = tested on: M14 melanoma
HOP-92 NSCLC = tested on: HOP-92 NSCLC
MALME-3M melanoma = tested on: MALME-3M melanoma
OVCAR-5 ovarian = tested on: OVCAR-5 ovarian
786-0 renal = tested on: 786-0 renal
LOX IMVI melanoma = tested on: LOX IMVI melanoma
SK-MEL-28 melanoma = tested on: SK-MEL-28 melanoma
NCI-H23 lung = tested on: NCI-H23 lung
OVCAR-3 ovarian = tested on: OVCAR-3 ovarian
SNB-19 CNS = tested on: SNB-19 CNS
HCC-2998 colon = tested on: HCC-2998 colon
OVCAR-4 ovarian = tested on: OVCAR-4 ovarian
UACC-257 melanoma = tested on: UACC-257 melanoma
SK-MEL-2 melanoma = tested on: SK-MEL-2 melanoma
MOLT-4 leukemia = tested on: MOLT-4 leukemia
UACC-62 melanoma = tested on: UACC-62 melanoma
CAKI-1 renal = tested on: CAKI-1 renal
COLO 205 colon = tested on: COLO 205 colon
ACHN renal = tested on: ACHN renal
NCI/ADR-RES ovarian = tested on: NCI/ADR-RES ovarian
MDA-MB-231 breast = tested on: MDA-MB-231 breast
MDA-MB-435 = tested on: MDA-MB-435
PC-3 prostate = tested on: PC-3 prostate
DU-145 prostate = tested on: DU-145 prostate
NCI-H460 lung = tested on: NCI-H460 lung
U251 CNS = tested on: U251 CNS
SW-620 colon = tested on: SW-620 colon
HOP-62 NSCLC = tested on: HOP-62 NSCLC
HT29 colon = tested on: HT29 colon
SNB-75 CNS = tested on: SNB-75 CNS
A498 renal = tested on: A498 renal
T-47D breast = tested on: T-47D breast
NCI-H522 lung = tested on: NCI-H522 lung
HCT-116 colon = tested on: HCT-116 colon
BT-549 breast = tested on: BT-549 breast
K-562 leukemia = tested on: K-562 leukemia
SF-268 CNS = tested on: SF-268 CNS
SN12C renal = tested on: SN12C renal
TK-10 renal = tested on: TK-10 renal
MCF7 breast = tested on: MCF7 breast
UO-31 renal = tested on: UO-31 renal
SF-539 CNS = tested on: SF-539 CNS
HL-60(TB) leukemia = tested on: HL-60(TB) leukemia
IGROV1 ovarian = tested on: IGROV1 ovarian

## CC[C@@]1(O)C[C@H](OC2CC(N(C)C)C(O)C(C)O2)c2c(O)c3c(c(O)c2[C@H]1OC1CC(N(C)C)C(O)C(C)O1)C(=O)c1cccc(O)c1C3=O (some centres not stated)
RXF 393 renal
  GI50: < 10 nM
  TGI: 64.3 nM and < 10 nM
HS 578T breast
  GI50: < 10 nM
  TGI: 388 nM and 72.4 nM
CCRF-CEM leukemia
  GI50: < 10 nM
  TGI: 204 nM
MDA-N
  GI50: < 10 nM
  TGI: 156 nM and 113 nM
RPMI-8226 leukemia
  GI50: < 10 nM
  TGI: 581 nM and 91.9 nM
HCT-15 colon
  GI50: 23.8 nM
  TGI: 971 nM and 1290 nM
SK-OV-3 ovarian
  GI50: < 10 nM
  TGI: 375 nM and 64.3 nM
NCI-H226 lung
  GI50: < 10 nM
SR leukemia
  GI50: < 10 nM
  TGI: 27.3 nM
SF-295 CNS
  GI50: < 10 nM
SK-MEL-5 melanoma
  GI50: < 10 nM
KM12 colon
  GI50: < 10 nM
EKVX NSCLC
  GI50: < 10 nM
  TGI: 538 nM and 167 nM
OVCAR-8 ovarian
  GI50: < 10 nM
  TGI: 400 nM and 1100 nM
M14 melanoma
  GI50: < 10 nM
HOP-92 NSCLC
  GI50: < 10 nM
MALME-3M melanoma
  GI50: < 10 nM
OVCAR-5 ovarian
  GI50: < 10 nM
786-0 renal
  GI50: < 10 nM
LOX IMVI melanoma
  TGI: 92.3 nM
SK-MEL-28 melanoma
  GI50: < 10 nM
  TGI: 135 nM and 40.5 nM
NCI-H23 lung
  GI50: < 10 nM
OVCAR-3 ovarian
  GI50: < 10 nM
  TGI: < 10 nM
SNB-19 CNS
  GI50: < 10 nM
  TGI: 11100 nM
HCC-2998 colon
  GI50: < 10 nM
  TGI: 75.9 nM and 21.6 nM
OVCAR-4 ovarian
  GI50: < 10 nM
  TGI: 601 nM and 147 nM
UACC-257 melanoma
  GI50: < 10 nM
SK-MEL-2 melanoma
  GI50: < 10 nM
  TGI: 56.8 nM and < 10 nM
MOLT-4 leukemia
  GI50: < 10 nM
  TGI: 57.3 nM
UACC-62 melanoma
  GI50: < 10 nM
  TGI: 71.1 nM and < 10 nM
CAKI-1 renal
  TGI: 54.5 nM
COLO 205 colon
  GI50: < 10 nM
  TGI: 149 nM and 29.7 nM
ACHN renal
  GI50: 30 nM and < 10 nM
  TGI: < 10 nM
NCI/ADR-RES ovarian
  GI50: < 10 nM
  TGI: 842 nM and 334 nM
MDA-MB-231 breast
  GI50: < 10 nM
MDA-MB-435
  GI50: < 10 nM
  TGI: 123 nM and 18.7 nM
PC-3 prostate
  GI50: < 10 nM
DU-145 prostate
  GI50: < 10 nM
  TGI: 11300 nM
NCI-H460 lung
  GI50: < 10 nM
  TGI: 304 nM and 662 nM
U251 CNS
  GI50: < 10 nM
SW-620 colon
  GI50: < 10 nM
  TGI: 14.9 nM
HOP-62 NSCLC
  GI50: < 10 nM
  TGI: 192 nM
HT29 colon
  GI50: < 10 nM
  TGI: 353 nM and 109 nM
SNB-75 CNS
  GI50: < 10 nM
A498 renal
  GI50: < 10 nM
T-47D breast
  GI50: < 10 nM
  TGI: 37.9 nM
NCI-H522 lung
  GI50: < 10 nM
  TGI: 85.7 nM and < 10 nM
HCT-116 colon
  GI50: < 10 nM
BT-549 breast
  GI50: < 10 nM
  TGI: 293 nM and 102 nM
K-562 leukemia
  GI50: < 10 nM
SF-268 CNS
  GI50: < 10 nM
SN12C renal
  GI50: < 10 nM
  TGI: 1040 nM
TK-10 renal
  GI50: < 10 nM
MCF7 breast
  GI50: < 10 nM
  TGI: 381 nM and 74.3 nM
UO-31 renal
  GI50: < 10 nM
SF-539 CNS
  GI50: < 10 nM
  TGI: 212 nM and 183 nM
HL-60(TB) leukemia
  GI50: 10.2 nM
IGROV1 ovarian
  GI50: < 10 nM
  TGI: 2940 nM
